As a reminder, the logP is a log measure of how a compound divides between an organic and an aqueous phase. Higher therefore signals a more lipophilic compound.

The source of these data is ChEMBL document CHEMBL3046296, “Development of a New Herbicide, Indanofan” (J Pestic Sci, 2004).

SMILES strings stand for the structures.

One data set concerns Zoysia matrella. The experiment in a line: Pre-emergence herbicide activity against Zoysia matrella measured 7 days after planting. The class given is functional.
The next data set concerns Poa annua. The experiment in a line: Pre-emergence herbicide activity against Poa annua up to two-leaf stage. Type of data set: functional.
Data set [1] relates to Echinochloa oryzicola. The experiment in a line: Pre-emergence herbicide activity against Echinochloa oryzicola after 42 days. The class given is functional.
A further data set relates to Echinochloa crus-galli. The experiment in a line: Pre-emergence herbicide activity against Echinochloa crus-galli (barnyard grass) up to 3-leaf stage. Type of data set: functional.
For data set [2], the system named is Echinochloa oryzicola. The experiment in a line: Pre-emergence herbicide activity against Echinochloa oryzicola up to three-leaf stage. Type of data set: functional.
Data set [3] in a line: Octanol-water partition co-efficient, log P of the compound in water at 25 degC. Type of data set: physicochemical.

As to `CCC1(CC2(c3cccc(Cl)c3)CO2)C(=O)c2ccccc2C1=O` (stereo not drawn) [(RS)-INDANOFAN], the Activity in the data set with Zoysia matrella was found to be 1 KgAi/ha; in the data set on Poa annua it was 0.5 KgAi/ha; in the data set with Echinochloa oryzicola [1], 0.15 KgAi/ha; in the data set on Echinochloa crus-galli it was 0.15 KgAi/ha; with Echinochloa oryzicola [2], 0.15 KgAi/ha. Also, in data set [3], the logP was 3.59.
